Data on eight molecules can be found in publication PMC11440591 (Journal of Medicinal Chemistry, 2024).

One data set deals with EBOV. Conditions: cited from earlier work.
The subject of a further data set is VeroE6 cells. As to conditions: cited from earlier work.
Another data set relates to EBOV like particles. Conditions: cited from earlier work.
Data set [1] concerns pseudotypes with the SUDV envelope (pSUDV). In words: microbe, parasite or virus in culture. The format is cell-based. As to conditions: Sudan ebolavirus, read-out: EC50 (pSUDV).
For data set [2], the system named is VSV-G-pseudotype virus (pVSV-G). Put plainly: microbe, parasite or virus in culture. In kind it is cell-based. As to conditions: Vesicular stomatitis virus, read-out: %inh@10µM (pVSV-G).
In data set [3] the target is EBOV-GPcl/NPC1-domain C interaction (Zaire ebolavirus, UniProt Q05320). The format is binding, EBOV; Homo sapiens.
Chain of EBOV-GPcl/NPC1-domain C interaction (Q05320 33-190 limits assumed): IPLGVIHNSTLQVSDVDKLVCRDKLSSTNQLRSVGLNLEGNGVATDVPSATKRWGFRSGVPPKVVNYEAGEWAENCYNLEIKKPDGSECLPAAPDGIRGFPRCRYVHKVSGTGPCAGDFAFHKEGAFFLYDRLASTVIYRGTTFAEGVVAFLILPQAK
Chain of EBOV-GPcl/NPC1-domain C interaction (Q05320 502-676 limits assumed): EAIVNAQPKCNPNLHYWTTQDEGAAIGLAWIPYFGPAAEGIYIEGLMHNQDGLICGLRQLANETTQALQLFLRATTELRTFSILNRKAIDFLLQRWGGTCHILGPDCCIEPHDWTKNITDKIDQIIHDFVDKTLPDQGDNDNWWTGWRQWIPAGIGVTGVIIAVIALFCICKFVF
For data set [4] the following is noted: male, BALB/c, mouse, in vivo.
Data set [5] in a line: in vivo. Conditions: male, BALB/c, mouse.
Data set [6] in a line: in vitro. As to conditions: chlorocebus sabaeus.
Data set [7] deals with T1, hERG potassium channel (Homo sapiens, UniProt Q12809). Put plainly: in vitro.
T1 sequence (Q12809 whole entry): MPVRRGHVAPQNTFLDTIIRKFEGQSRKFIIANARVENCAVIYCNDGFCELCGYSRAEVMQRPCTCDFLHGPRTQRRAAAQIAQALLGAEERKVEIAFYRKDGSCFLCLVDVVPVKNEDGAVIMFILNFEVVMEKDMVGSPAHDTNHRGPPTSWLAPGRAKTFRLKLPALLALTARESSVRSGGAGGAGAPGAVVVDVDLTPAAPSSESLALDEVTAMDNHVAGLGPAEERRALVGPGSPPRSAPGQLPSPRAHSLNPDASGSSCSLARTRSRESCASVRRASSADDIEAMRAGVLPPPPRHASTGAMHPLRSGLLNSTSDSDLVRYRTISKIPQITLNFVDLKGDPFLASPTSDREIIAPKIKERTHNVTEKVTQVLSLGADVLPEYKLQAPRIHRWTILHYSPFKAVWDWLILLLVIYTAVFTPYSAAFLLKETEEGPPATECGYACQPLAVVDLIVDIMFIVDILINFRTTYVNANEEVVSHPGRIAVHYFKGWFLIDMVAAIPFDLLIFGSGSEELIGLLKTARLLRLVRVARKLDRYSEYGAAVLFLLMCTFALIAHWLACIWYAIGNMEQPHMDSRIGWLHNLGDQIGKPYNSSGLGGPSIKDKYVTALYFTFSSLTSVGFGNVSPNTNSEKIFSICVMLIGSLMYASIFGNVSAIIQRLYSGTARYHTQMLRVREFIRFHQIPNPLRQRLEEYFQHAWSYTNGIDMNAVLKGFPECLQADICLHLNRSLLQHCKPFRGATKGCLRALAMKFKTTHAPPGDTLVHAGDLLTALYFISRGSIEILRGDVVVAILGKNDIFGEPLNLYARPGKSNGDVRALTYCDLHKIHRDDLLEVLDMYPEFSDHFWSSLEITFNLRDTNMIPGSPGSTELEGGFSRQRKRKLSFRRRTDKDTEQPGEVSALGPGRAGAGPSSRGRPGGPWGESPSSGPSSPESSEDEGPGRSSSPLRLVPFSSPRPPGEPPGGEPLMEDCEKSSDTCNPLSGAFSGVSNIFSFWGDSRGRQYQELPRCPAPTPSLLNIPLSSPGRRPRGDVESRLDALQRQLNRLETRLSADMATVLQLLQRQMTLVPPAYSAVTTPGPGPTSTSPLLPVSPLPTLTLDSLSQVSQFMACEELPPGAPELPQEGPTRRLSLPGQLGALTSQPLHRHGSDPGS
The target in another data set is Nav1.5 (Homo sapiens, UniProt Q14524). In words: in vitro.
Chain of Nav1.5 (Q14524 whole entry): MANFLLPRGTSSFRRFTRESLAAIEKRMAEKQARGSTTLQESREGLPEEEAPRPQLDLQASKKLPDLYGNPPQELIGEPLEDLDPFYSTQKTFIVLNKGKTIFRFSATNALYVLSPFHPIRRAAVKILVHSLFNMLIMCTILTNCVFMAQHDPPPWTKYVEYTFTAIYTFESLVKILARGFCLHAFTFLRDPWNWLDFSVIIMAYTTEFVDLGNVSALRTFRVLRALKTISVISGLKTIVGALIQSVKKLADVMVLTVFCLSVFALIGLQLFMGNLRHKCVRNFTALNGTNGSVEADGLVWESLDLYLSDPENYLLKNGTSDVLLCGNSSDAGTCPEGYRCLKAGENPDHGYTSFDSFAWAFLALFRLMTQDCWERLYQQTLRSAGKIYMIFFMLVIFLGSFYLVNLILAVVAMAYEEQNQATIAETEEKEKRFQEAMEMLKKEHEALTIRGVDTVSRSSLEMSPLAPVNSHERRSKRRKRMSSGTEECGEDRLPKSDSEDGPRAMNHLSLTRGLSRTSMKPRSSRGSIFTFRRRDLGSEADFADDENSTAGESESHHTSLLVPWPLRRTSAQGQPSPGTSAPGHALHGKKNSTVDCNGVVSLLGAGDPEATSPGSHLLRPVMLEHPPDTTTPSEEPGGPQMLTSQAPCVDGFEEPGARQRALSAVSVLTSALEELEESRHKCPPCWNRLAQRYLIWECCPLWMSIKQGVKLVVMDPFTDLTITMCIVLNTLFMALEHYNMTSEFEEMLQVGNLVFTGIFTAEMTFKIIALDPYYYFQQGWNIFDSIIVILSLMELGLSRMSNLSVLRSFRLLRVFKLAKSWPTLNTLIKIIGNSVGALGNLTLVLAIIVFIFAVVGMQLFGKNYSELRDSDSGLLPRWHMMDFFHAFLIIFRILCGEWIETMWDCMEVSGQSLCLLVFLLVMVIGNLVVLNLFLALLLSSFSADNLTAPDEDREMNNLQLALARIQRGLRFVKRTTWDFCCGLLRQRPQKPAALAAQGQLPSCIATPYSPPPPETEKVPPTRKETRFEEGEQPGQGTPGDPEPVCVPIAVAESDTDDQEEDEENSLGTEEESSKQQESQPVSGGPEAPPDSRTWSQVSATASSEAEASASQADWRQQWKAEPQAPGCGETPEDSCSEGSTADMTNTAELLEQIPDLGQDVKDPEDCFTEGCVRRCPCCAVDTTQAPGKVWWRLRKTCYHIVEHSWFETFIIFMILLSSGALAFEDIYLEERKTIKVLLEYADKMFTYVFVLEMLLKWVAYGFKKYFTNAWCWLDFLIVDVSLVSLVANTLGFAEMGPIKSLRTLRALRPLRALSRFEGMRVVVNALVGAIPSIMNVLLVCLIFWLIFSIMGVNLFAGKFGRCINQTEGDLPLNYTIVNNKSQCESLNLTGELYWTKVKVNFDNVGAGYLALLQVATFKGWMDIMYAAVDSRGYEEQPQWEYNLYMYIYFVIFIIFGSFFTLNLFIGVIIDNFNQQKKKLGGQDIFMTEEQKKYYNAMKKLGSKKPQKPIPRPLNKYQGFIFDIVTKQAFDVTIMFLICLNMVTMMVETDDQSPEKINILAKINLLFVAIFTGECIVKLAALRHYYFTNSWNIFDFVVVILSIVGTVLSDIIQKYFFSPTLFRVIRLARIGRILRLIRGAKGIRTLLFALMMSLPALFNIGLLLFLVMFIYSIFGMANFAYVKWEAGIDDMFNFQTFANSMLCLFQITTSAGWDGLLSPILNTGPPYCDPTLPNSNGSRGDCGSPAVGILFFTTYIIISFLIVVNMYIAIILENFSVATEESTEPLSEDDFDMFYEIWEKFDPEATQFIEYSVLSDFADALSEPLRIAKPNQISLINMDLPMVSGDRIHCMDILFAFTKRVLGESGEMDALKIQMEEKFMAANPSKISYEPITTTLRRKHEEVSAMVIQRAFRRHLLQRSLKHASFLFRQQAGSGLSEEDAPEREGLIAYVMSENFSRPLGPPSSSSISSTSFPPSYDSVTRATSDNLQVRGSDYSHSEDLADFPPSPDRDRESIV
The test system of data set [8] is EBOV-GP-pseudotyped virus (pEBOV). In words: microbe, parasite or virus in culture. As to conditions: Vesicular stomatitis virus, Vero C1008, 24 h, read-out: EC50 (pEBOV).
The test system of data set [9] is wild-type Zaire EBOV Mayinga 1976 strain (EBOV May). Put plainly: microbe, parasite or virus in culture. Conditions: Zaire ebolavirus, Vero C1008, 72 h, read-out: EC50 (EBOV May).
A short description of data set [10]: in vivo. Conditions: both, C57BL/6, mouse, po.
Data set [11] is described as follows: in vitro. As to conditions: human, microsomes, pH 7.4.
Data set [12] is described as follows: in vitro. As to conditions: CD-1, mouse, microsomes, pH 7.4.
Data set [13] addresses T1, hERG potassium channel. In words: cell-based.
The test system of data set [14] is EBOV-GP-pseudotyped virus (pEBOV).
Data set [15] has as its system wild-type Zaire EBOV Mayinga 1976 strain (EBOV May).

Like-named read-outs stand apart in the source and are kept apart here.

Regarding `COC(=O)c1ccc(COc2ccccc2CN2CCN(C(=O)CNC(=O)CC34CC5CC(CC(C5)C3)C4)CC2)cc1` [3.47], in the data set with EBOV, the EC50 (usually the concentration needed to bring the measured effect to its halfway point) is 0.16 µM.

For the molecule `NC(=O)c1nc(F)cnc1O` [Favipiravir, favipiravir], the 50% inhibitory concentration (IC50) (commonly the concentration at which inhibition is half-maximal) in the data set on EBOV is 67 µM. Besides, in the data set with VeroE6 cells, the CC50 was more than 1000 µM.

As to `CN(C)CCCN1c2ccccc2CCc2ccccc21` [Imipramine, imipramine], the IC50 with EBOV like particles was 13.2 µM.

As for `CN(C)CCOc1ccc(/C(=C(/CCCl)c2ccccc2)c2ccccc2)cc1` [Toremifene, toremifene], the CC50 with VeroE6 cells was 16 µM.

In the case of `O=C(Nc1ccccc1)c1ccc(-c2ccccc2OC2CCNCC2)s1` [compound 1, N-Phenyl-5-(2-(piperidin-4-yloxy)phenyl)thiophene-2-carboxamide], the EC50 in data set [1] came out at 2.64 µM; in data set [8], 5.91 µM; in data set [9] it was 1.5 µM. Moreover, in data set [2], the inhibition at 10 µM amounted to 0.66%. For the same molecule, in [3], the “inhibitory effect on EBOV-GPcl/NPC1-domain C interaction (in words)” value is recorded as “comparable effect than the control imipramine”. Further, the brain concentration in data set [4] (ip, 10 mg/kg) turned out to be 330 nM; in [4] (po, 50 mg/kg), 810 nM. Further, the estimated plasma concentration in data set [4] (ip, 10 mg/kg) is 0.32 µM; in [4] (po, 50 mg/kg) it was 0.29 µM. In addition, the half-life (commonly the time needed for the level to fall by half in the phase considered) at 24 h in the data set “in vivo [5]” (ip, 10 mg/kg) was 1.96 h; in “in vivo [5]” (po, 50 mg/kg), 5.6 h. Also, in “in vivo [5]” (ip, 10 mg/kg), the Cmax – broadly, the peak of the concentration-time curve – at 24 h is 122 ng/mL. This molecule yielded a CC50 at 24 h in “in vitro [6]” of 34 µM. Also, the IC50 against hERG potassium channel [7] was 10.6 µM; against Nav1.5, 20.4 µM.

For `O=C(Nc1ccccc1)c1ccc(-c2cccc(OC3CCNCC3)c2)s1` [compound 53, N-Phenyl-5-(3-(piperidin-4-yloxy)phenyl)thiophene-2-carboxamide], the EC50 in data set [1] stood at 3.05 µM; in data set [8], 7.19 µM; in [9], 0.3 µM. The inhibition at 10 µM in [2] worked out at 7%. The molecule further gave a CC50 at 24 h in “in vitro [6]” of 33.9 µM.

As for `O=C(Nc1ccccc1)c1ccc(-c2ccc(OC3CCNCC3)cc2)s1` [compound 57, N-Phenyl-5-(4-(piperidin-4-yloxy)phenyl)thiophene-2-carboxamide], the EC50 in data set [1] came out at 1.68 µM; in data set [8], 8.16 µM; in data set [9] it was 0.19 µM. Moreover, the inhibition at 10 µM in [2] was found to be 24%. In data set [3], the “inhibitory effect on EBOV-GPcl/NPC1-domain C interaction (in words)” value is listed as “comparable effect than the control imipramine”. Moreover, the brain concentration in data set [4] (ip, 10 mg/kg) came out at 4430 nM; in data set [4] (po, 50 mg/kg), 14800 nM. Moreover, the estimated plasma concentration was 2.74 µM in data set [4] (ip, 10 mg/kg) and 2.04 µM in [4] (po, 50 mg/kg). Besides, the half-life at 24 h is 5.18 h in the data set “in vivo [5]” (ip, 10 mg/kg) and 8.76 h in the data set “in vivo [5]” (po, 50 mg/kg). For the same molecule, the Cmax came out at 1680 ng/mL in the data set “in vivo [5]” (ip, 10 mg/kg) and 773 ng/mL in “in vivo [5]” (po, 50 mg/kg). The peak concentration (Cmax) at 24 h stood at 1040 ng/mL in “in vivo [5]” (ip, 10 mg/kg) and 5600 ng/mL in “in vivo [5]” (po, 50 mg/kg). In addition, the Tmax (in general, the time from dosing to the highest level) in the data set “in vivo [5]” (ip, 10 mg/kg) worked out at 4 h; in the data set “in vivo [5]” (po, 50 mg/kg), 4 h. In addition, the Tmax at 24 h in the data set “in vivo [5]” (ip, 10 mg/kg) came out at 0.5 h; in the data set “in vivo [5]” (po, 50 mg/kg) it was 2 h. In “in vivo [10]”, this molecule yielded an MTD of 100 mg/kg. Besides, the CC50 at 24 h in the data set “in vitro [6]” came out at 11 µM. For the same molecule, the half-life at 1 h, 10 µM in “in vitro [11]” was 2.17 ± 0.15 h; in the data set “in vitro [12]”, 0.483 ± 0.0833 h. Moreover, the half-maximal inhibitory concentration (IC50) at hERG potassium channel [7] was 48.9 µM; at Nav1.5, more than 50 µM; on hERG potassium channel [13], approximately 50 µM.

Regarding `O=C(Nc1ccccc1)c1ccc(-c2cccc(OC3CCNCC3)c2)o1` [compound 103, N-Phenyl-5-(3-(piperidin-4-yloxy)phenyl)furan-2-carboxamide], the inhibition at 10 µM in [2] was -18%. Moreover, the “SI (CC50/EC50)” value in data set [14] is given as 1.7; in [15] it was 1.5. Besides, the CC50 at 24 h in “in vitro [6]” turned out to be 14.1 µM. In addition, the results for the EC50 in data set [8] and in [9] were 8.27 µM and 9.26 µM, respectively.
